Reference: patent US8114629B2, “Site specific incorporation of keto amino acids into proteins” (The Scripps Research Institute, priority 2002, dated 2012)
≈ marks a conversion by molar mass, not a printed value. Where two headings read alike, the source gives them in different places.

Legend:
[1] = tested on: E. coli cells expressing mutant TyrRS and mutRNA^TyrCUA; assay: in vivo assay based on suppression of the Asp112TAG codon in the CAT gene (chloramphenicol resistance), p-acetyl-L-phenylalanine synthetases; format: cell-based; conditions: Escherichia coli, read-out: IC50 value chloramphenicol, eleven mutant TyrRS
[2] = tested on: cells harboring the one of the three mutant TyrRS plasmids; assay: chloramphenicol resistance of cells harboring mutant TyrRS plasmids selected for m-acetyl phenylalanine; format: cell-based
From the text: Preparation of mutant TyrRS library plasmids: A library of plasmids encoding mutant M. jannaschii TryRSs directed at meta-substituted tyrosine derivatives was constructed, generally following the methods described in Example 1 of WO 2002/085923. Briefly, six residues (Tyr^32, Ala^67, His^70, Gln^155, Asp^158, Ala^167) in the active site of M. jannaschii TyrRS that are within 6.9 Å of the meta-position of the aryl ring of bound tyrosine in the crystal structure of Bacillus stearothermophilus TyrRS were mutated to all 20 amino acids at DNA level using the NNK codon scheme as described in Example 1 above. The constructed plasmid library pBK-lib contained around 1×10^9 independent clones.
Evolution of orthogonal tRNA-synthetase pairs for incorporation of m-acetyl phenylalanine: After 3 rounds of positive selection and 2 rounds of negative selection, five candidate clones (SEQ ID NO: 17-21 of WO 2002/085923 and SEQ ID NO: 49-53 of WO 2002/085923) emerged whose survival in chloramphenicol was dependent on the addition of the unnatural amino acid. In the absence of m-acetyl phenylalanine, the IC50 of chloramphenicol resistance for cells harboring the one of the three mutant TyrRS plasmids is 20 μg/ml. In the presence of m-acetyl phenylalanine, the IC50 of resistance to chloramphenicol for the same cells is 100 μg/ml. […]

[3] = tested on: E. coli DH10B cells; assay: growth of cells in the presence of the unnatural amino acid during Z domain expression; conditions: 1 mM; cells transformed with mutRNA^TyrCUA, LW1RS and Z domain gene (Lys7TAG)
Protocol: E. coli DH10B cells cotransformed with pLEIZ and pBK-LW1RS were grown in minimal media containing 1% glycerol and 0.3 mM leucine (GMML media) with 25 μg/mL kanamycin, 34 μg/mL of chloramphenicol, and 1.0 mM p-acetyl-(±)-phenylalanine. When cells reach an OD600 of 0.5, isopropyl-β-D-thiogalactopyranoside (IPTG) (1 mM) was added to induce protein expression.
Cells transformed with the mutRNA^TyrCUA, LW1RS and Z domain gene (Lys7TAG) were grown in the presence of 1 mM p-acetyl-(±)-phenylalanine.

[4] = biological target: T1, mutRNA^TyrCUA/LW1RS (Methanocaldococcus jannaschii, UniProt Q57834, D158G/I159C/L162R/Y32L); format: cell-based, Methanococcus jannaschii; conditions: mutant Z domain (Lys7TAG); from signal-to-noise ratio of more than 1500 in the intact protein mass spectrum
T1 construct: The mutant synthetase gene isolated from clone LW1 (LW1RS) was encoded in plasmid pBKLW1RS; expressed in transfected cells; host or cells: E. coli DH10B cotransformed with pLEIZ and pBK-LW1RS
T1 sequence (Q57834 whole entry Y32L/D158G/I159C/L162R): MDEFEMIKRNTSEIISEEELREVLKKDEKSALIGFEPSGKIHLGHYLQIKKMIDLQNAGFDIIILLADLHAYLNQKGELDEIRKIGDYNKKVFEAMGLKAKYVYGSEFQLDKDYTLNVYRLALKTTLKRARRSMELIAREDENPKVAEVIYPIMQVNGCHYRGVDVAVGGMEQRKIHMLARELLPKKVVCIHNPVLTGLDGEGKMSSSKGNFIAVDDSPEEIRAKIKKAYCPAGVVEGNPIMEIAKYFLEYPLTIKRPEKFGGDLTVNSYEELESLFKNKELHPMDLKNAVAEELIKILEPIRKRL
From the text: Protein expression and purification: Plasmid pLEIZ was used to express the Z-domain gene with an amber codon at the 7th position and a COOH-terminal His6 tag under the control of a bacteriophage T5 promoter and t0 terminator, and the mutRNA^TyrCUA gene under the control of the lpp promoter and rrnC terminator. The mutant synthetase gene isolated from clone LW1 (LW1RS) was encoded in plasmid pBKLW1RS under the control of the constitutive E. coli GlnRS promoter and terminator. E. coli DH10B cells cotransformed with pLEIZ and pBK-LW1RS were grown in minimal media containing 1% glycerol and 0.3 mM leucine (GMML media) with 25 μg/mL kanamycin, 34 μg/mL of chloramphenicol, and 1.0 mM p-acetyl-(±)-phenylalanine. When cells reach an OD600 of 0.5, isopropyl-β-D-thiogalactopyranoside (IPTG) (1 mM) was added to induce protein expression. After 5 hours, cells were pelleted and the protein was purified by Ni^2+ affinity chromatography under denaturing conditions according to the manufacturer's protocol (Qiagen, Valencia, Calif.). […] The yield of protein was measured by Bradford assay (BCA kit, Biorad, Hercules, Calif.). […]
Both the wt Z domain protein expressed by mutRNA^TyrCUA/wt TyrRS and the mutant Z domain protein expressed by the mutRNA^TyrCUA/LW1RS were analyzed by electrospray ionization Fourier transform ion cyclotron resonance mass spectrometry (FT-ICR MS). […]

Compound `O=C(N[C@H](CO)[C@H](O)c1ccc([N+](=O)[O-])cc1)C(Cl)Cl` [chloramphenicol] has an IC50 ([1]; in the absence of p-acetyl-L-phenylalanine) of 9 µg/mL (≈ 27.9 µM), an IC50 ([1]; in the presence of p-acetyl-L-phenylalanine) of 120 µg/mL and an IC50 ([2]; in the presence of m-acetyl phenylalanine, read-out: IC50 of resistance to chloramphenicol) of 100 µg/mL. For the same compound, the IC50 ([2]; read-out: IC50 of chloramphenicol resistance) was 20 µg/mL (≈ 61.9 µM).
`CC(=O)c1ccc(CC(N)C(=O)O)cc1` (racemic) [p-acetyl-(±)-phenylalanine] was tested, and the “effect on growth rate of cells” value [3] was “did not affect the growth rate of cells”.
For `CC(=O)c1ccc(C[C@H](N)C(=O)O)cc1` [p-acetyl-L-phenylalanine], the “fidelity for the incorporation” value [4] was over 99.8%.
